Results: US20100137449A1, “SUBSTITUTED 1,3-CYCLOPENTADIONE MULTI-TARGET PROTEIN KINASE MODULATORS OF CANCER, ANGIOGENESIS AND THE INFLAMMATORY PATHWAYS ASSOCIATED THEREWITH” (METAPROTEOMICS, LLC, priority 2007, published 2010)

Key:
Experiment in all cases: KinaseProfiler Assay
Abl(M351T)(h) = Abl(M351T)(h) (Homo sapiens, UniProt P00519, M351T)
EphB1(h) = biological target: T1, EphB1(h) (Homo sapiens, UniProt P54762)
T1 sequence (P54762 18-984): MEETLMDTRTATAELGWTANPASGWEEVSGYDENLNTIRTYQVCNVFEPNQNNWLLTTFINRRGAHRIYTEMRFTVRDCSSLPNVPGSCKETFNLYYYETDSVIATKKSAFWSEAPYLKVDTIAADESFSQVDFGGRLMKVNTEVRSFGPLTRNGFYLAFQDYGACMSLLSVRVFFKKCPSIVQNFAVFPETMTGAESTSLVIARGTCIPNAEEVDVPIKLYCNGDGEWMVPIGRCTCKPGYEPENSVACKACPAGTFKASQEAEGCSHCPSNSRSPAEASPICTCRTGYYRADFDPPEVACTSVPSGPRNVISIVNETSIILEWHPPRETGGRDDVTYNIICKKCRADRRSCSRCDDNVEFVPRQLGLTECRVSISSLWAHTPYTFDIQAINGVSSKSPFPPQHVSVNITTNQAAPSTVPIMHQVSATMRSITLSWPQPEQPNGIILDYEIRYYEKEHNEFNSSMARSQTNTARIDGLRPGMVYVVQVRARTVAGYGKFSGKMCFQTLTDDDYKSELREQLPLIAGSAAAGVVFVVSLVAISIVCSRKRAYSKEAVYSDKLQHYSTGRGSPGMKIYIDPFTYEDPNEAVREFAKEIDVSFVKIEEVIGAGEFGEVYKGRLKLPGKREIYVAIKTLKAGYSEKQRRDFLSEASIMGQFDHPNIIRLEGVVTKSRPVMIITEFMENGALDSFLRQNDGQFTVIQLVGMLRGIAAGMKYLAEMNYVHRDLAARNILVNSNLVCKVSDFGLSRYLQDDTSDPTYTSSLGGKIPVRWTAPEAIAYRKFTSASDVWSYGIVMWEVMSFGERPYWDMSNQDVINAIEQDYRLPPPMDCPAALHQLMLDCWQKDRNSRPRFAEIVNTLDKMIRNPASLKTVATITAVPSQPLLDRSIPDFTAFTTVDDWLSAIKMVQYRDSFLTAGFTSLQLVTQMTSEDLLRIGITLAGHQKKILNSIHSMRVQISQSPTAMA

Ret(h) = Ret(h) (Homo sapiens, UniProt P07949)
MSK1(h) = MSK1(h) (Homo sapiens, UniProt O75582)
JAK3(h) = biological target: T2, JAK3(h) (Homo sapiens, UniProt P52333)
T2 sequence (P52333 1-1124): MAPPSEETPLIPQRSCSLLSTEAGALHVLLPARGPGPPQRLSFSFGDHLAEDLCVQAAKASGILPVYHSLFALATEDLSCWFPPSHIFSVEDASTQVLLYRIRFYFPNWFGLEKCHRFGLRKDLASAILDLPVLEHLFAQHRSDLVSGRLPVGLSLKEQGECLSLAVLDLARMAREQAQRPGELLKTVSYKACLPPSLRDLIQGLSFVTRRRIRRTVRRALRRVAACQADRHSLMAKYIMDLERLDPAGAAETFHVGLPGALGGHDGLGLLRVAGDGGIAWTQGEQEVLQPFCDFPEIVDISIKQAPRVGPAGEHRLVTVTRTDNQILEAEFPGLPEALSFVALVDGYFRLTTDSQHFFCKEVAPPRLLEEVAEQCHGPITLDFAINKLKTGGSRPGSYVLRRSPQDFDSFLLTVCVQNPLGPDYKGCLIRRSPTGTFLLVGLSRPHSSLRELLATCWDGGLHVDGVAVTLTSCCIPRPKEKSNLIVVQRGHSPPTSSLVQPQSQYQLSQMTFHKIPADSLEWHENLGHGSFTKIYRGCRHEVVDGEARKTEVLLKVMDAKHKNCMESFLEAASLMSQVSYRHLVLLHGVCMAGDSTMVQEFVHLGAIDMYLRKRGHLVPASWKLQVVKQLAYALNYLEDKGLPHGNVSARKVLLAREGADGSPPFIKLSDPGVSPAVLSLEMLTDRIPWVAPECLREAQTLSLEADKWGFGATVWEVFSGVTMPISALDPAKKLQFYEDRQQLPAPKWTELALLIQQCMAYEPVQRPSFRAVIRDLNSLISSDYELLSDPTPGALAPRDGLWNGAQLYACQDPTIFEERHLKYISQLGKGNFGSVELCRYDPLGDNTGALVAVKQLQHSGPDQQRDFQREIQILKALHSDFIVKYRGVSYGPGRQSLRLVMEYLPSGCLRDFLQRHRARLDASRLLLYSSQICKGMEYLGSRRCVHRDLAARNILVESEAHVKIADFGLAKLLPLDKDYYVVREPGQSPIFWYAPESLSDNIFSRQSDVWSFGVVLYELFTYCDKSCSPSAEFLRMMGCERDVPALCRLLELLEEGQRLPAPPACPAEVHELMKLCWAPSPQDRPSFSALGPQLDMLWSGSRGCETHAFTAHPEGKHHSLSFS

PKCβII(h) = PKCβII(h) (Homo sapiens, UniProt P05771)
PKCβII(h), sequence (P05771 1-673 isoform P05771-2): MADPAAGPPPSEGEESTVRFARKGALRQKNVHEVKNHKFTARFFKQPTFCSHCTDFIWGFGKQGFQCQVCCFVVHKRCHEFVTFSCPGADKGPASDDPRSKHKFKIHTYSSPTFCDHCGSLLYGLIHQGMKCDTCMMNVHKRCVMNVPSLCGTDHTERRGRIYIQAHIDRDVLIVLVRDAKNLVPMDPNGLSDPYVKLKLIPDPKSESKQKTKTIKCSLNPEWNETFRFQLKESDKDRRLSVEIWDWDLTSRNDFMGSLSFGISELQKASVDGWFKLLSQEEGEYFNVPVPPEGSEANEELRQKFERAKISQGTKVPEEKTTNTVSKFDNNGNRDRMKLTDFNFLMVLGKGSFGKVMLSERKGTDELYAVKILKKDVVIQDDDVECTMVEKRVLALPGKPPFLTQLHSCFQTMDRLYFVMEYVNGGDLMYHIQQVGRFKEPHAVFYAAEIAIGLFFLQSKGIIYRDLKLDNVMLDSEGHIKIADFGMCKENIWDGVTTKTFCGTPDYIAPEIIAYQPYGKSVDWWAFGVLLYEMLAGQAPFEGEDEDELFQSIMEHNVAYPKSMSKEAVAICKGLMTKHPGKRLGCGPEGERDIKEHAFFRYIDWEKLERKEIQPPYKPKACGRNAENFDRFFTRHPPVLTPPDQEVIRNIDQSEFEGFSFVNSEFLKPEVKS

Ret(h), sequence (P07949 29-1114): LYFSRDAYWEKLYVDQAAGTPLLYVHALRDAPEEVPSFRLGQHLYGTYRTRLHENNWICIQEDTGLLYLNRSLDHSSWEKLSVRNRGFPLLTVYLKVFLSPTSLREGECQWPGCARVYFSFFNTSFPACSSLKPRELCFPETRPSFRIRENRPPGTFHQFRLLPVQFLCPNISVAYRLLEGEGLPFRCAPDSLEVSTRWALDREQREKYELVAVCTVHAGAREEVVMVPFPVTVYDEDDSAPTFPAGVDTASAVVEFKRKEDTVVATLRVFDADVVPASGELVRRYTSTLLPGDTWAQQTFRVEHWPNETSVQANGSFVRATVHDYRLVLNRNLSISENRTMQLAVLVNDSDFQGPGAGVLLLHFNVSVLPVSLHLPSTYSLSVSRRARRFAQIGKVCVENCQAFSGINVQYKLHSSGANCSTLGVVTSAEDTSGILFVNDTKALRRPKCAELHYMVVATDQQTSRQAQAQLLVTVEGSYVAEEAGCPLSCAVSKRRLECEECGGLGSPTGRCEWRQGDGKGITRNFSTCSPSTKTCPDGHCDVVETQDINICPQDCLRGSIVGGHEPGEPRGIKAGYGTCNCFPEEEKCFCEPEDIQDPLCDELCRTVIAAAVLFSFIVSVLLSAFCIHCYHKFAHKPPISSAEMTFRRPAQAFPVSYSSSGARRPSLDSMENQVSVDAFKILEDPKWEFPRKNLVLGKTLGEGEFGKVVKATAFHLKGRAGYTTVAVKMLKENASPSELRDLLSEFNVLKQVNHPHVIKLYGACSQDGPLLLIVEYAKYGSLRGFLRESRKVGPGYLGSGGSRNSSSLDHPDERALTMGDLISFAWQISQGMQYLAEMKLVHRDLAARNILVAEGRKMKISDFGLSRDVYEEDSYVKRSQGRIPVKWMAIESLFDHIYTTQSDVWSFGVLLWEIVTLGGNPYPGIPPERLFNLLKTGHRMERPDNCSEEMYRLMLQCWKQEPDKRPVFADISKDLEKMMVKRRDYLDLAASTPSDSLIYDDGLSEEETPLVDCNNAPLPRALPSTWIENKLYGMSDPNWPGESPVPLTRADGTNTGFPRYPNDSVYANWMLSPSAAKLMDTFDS
MSK1(h), sequence (O75582 whole entry): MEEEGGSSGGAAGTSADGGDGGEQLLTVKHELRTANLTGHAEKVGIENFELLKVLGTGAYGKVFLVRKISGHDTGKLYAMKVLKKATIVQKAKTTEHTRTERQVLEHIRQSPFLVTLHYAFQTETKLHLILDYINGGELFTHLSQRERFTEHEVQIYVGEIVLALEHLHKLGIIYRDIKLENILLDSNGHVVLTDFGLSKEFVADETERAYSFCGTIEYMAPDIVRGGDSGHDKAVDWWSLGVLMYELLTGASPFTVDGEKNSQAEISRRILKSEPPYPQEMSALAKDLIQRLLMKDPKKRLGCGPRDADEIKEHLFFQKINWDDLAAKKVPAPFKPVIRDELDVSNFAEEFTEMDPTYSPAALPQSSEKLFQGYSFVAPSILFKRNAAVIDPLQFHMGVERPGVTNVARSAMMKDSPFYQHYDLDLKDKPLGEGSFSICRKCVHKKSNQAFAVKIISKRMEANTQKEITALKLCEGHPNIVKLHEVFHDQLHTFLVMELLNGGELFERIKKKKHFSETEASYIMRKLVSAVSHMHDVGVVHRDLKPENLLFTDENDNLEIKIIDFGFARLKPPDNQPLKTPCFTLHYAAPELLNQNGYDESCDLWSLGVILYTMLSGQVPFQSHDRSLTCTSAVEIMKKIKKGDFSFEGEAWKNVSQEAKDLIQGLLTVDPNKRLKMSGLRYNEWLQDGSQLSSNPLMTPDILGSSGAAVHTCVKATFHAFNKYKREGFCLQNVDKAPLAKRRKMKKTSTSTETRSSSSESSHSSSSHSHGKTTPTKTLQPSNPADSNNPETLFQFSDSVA

With `CC(C)CCC(=O)[C@]1(O)C(O)=C(C(=O)C(C)C)C(=O)[C@H]1CCC(C)C` [TH2, tetrahydroiso-cohumulone] the kinase inhibition (Abl(M351T)(h); 1 μg/ml) was 92% of control, the kinase inhibition (Abl(M351T)(h); 5 μg/ml) was 95% of control and the kinase inhibition (Abl(M351T)(h); 25 μg/ml) was 89% of control. The kinase inhibition (Abl(M351T)(h); 50 μg/ml) was 75% of control, the kinase inhibition (Abl(M351T)(h); 100 μg/ml) was 56% of control and the kinase inhibition (EphB1(h); 1 μg/ml) was 127% of control. For the same molecule, the kinase inhibition (EphB1(h); 5 μg/ml) was 82% of control, the kinase inhibition (EphB1(h); 25 μg/ml) was 144% of control and the kinase inhibition (EphB1(h); 50 μg/ml) was 195% of control. The kinase inhibition (EphB1(h); 100 μg/ml) was 105% of control, the kinase inhibition (Ret(h); 1 μg/ml) was 112% of control and the kinase inhibition (Ret(h); 5 μg/ml) was 115% of control. The kinase inhibition (Ret(h); 25 μg/ml) was 101% of control, the kinase inhibition (Ret(h); 50 μg/ml) was 100% of control and the kinase inhibition (Ret(h); 100 μg/ml) was 68% of control. For the same molecule, the kinase inhibition (MSK1(h); 1 μg/ml) was 98% of control, the kinase inhibition (MSK1(h); 5 μg/ml) was 103% of control and the kinase inhibition (MSK1(h); 25 μg/ml) was 92% of control. The kinase inhibition (MSK1(h); 50 μg/ml) was 64% of control, the kinase inhibition (MSK1(h); 100 μg/ml) was 52% of control and the kinase inhibition (JAK3(h); 1 μg/ml) was 74% of control. The kinase inhibition (JAK3(h); 5 μg/ml) was 67% of control, the kinase inhibition (JAK3(h); 25 μg/ml) was 62% of control and the kinase inhibition (JAK3(h); 50 μg/ml) was 53% of control. The kinase inhibition (JAK3(h); 100 μg/ml) was 35% of control, the kinase inhibition (PKCβII(h); 1 μg/ml) was 107% of control and the kinase inhibition (PKCβII(h); 5 μg/ml) was 105% of control. For the same molecule, the kinase inhibition (PKCβII(h); 25 μg/ml) was 99% of control, the kinase inhibition (PKCβII(h); 50 μg/ml) was 103% of control and the kinase inhibition (PKCβII(h); 100 μg/ml) was 98% of control.
